Laboratory results from PubChem BioAssay AID330 (DTP/NCI, 2004).
Several values for one entry are separate records, joined by “and”; a condition that tells them apart may be missing. Identical values can stand only once. Toxic doses and inconclusive results are not listed.

Tested on: P388 leukemia ip, CD2F1 mice, survival T/C
Assay: NCI In Vivo Anticancer Drug Screen. Data for tumor model P388 Leukemia (intraperitoneal) in CD2F1 (CDF1) mice
Settings: endpoint: median survival time, higher = longer survival
Outline: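 Mice carrying the transplanted tumor received test compound or vehicle. Survival was recorded in each group, and the value is the treated-group measurement divided by that of the vehicle-treated control group.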

[1] = dose: 50.0 mg/kg/injection, schedule: Q01DX005 (ip), vehicle: Klucel (hydroxypropylcellulose) (HPC)
[2] = dose: 100.0 mg/kg/injection, schedule: Q01DX005 (ip), vehicle: Klucel (hydroxypropylcellulose) (HPC)
[3] = dose: 200.0 mg/kg/injection, schedule: Q01DX005 (ip), vehicle: Klucel (hydroxypropylcellulose) (HPC)
[4] = dose: 60.0 mg/kg/injection, schedule: Q01DX005 (ip), vehicle: saline with Tween-80
[5] = dose: 120.0 mg/kg/injection, schedule: Q01DX005 (ip), vehicle: saline with Tween-80
[6] = dose: 240.0 mg/kg/injection, schedule: Q01DX005 (ip), vehicle: saline with Tween-80

## COc1ccc(CC2(OC(C)=O)N=NC(C)(C)O2)cc1 (stereo unspecified)
[1]
  T/C: 103 % of control
[2]
  T/C: 98 % of control
[3]
  T/C: 98 % of control

## COc1ccc(C(c2cc3c(cc2O)OCO3)N2CCCCC2)cc1 (stereo unspecified)
[4]
  T/C: 114 % of control
[5]
  T/C: 112 % of control
[6]
  T/C: 121 % of control

## Cc1[nH]c(/N=C/c2ccc(N(C)C)cc2)c(C#N)c1C
[4]
  T/C: 91 % of control
[5]
  T/C: 90 % of control
[6]
  T/C: 97 % of control

## CCCCN(CCCC)CC(O)c1c(Br)c2ccccc2c2ccccc12 (stereo unspecified)
dose: 12.5 mg/kg/injection, schedule: Q01DX009 (ip), vehicle: saline with Tween-80
  T/C: 107 % of control
dose: 25.0 mg/kg/injection, schedule: Q01DX009 (ip), vehicle: saline with Tween-80
  T/C: 109 % of control
dose: 50.0 mg/kg/injection, schedule: Q01DX009 (ip), vehicle: saline with Tween-80
  T/C: 124 % of control

## Oc1ccccc1C=Nc1ccc2c(ccc3c4ccccc4ccc23)c1
[1]
  T/C: 111 % of control
[2]
  T/C: 102 % of control
[3]
  T/C: 116 % of control

## CC1CC2OC(=O)CC2C(O)C2(C)C(OC(C)(C)C)CCC12 (stereo unspecified)
[1]
  T/C: 100 % of control
[2]
  T/C: 90 % of control

## OC1c2ccccc2-c2cccc(N=Cc3ccc4c(c3)OCO4)c21 (stereo unspecified)
[4]
  T/C: 108 % of control
[5]
  T/C: 97 % of control
[6]
  T/C: 95 % of control

## NC1(c2ccccc2)CCCCC1
dose: 12.5 mg/kg/injection, schedule: Q01DX009 (ip), vehicle: saline
  T/C: 99 % of control
dose: 25.0 mg/kg/injection, schedule: Q01DX009 (ip), vehicle: saline
  T/C: 106 % of control
dose: 50.0 mg/kg/injection, schedule: Q01DX009 (ip), vehicle: saline
  T/C: 105 % of control

## O=C(O)C1Cc2c([nH]c3ccccc23)C(c2cccs2)N1 (stereo unspecified)
dose: 60.0 mg/kg/injection, schedule: Q01DX005 (ip), vehicle: Klucel (hydroxypropylcellulose) (HPC)
  T/C: 100 % of control
dose: 120.0 mg/kg/injection, schedule: Q01DX005 (ip), vehicle: Klucel (hydroxypropylcellulose) (HPC)
  T/C: 96 % of control
dose: 240.0 mg/kg/injection, schedule: Q01DX005 (ip), vehicle: Klucel (hydroxypropylcellulose) (HPC)
  T/C: 97 % of control

## Nc1ccc(-c2csc(-c3ccccc3)n2)c(Cl)c1
dose: 12.5 mg/kg/injection, schedule: Q01DX009 (ip), vehicle: Klucel (hydroxypropylcellulose) (HPC)
  T/C: 98 % of control and 99 % of control
dose: 25.0 mg/kg/injection, schedule: Q01DX009 (ip), vehicle: Klucel (hydroxypropylcellulose) (HPC)
  T/C: 103 % of control and 115 % of control
dose: 50.0 mg/kg/injection, schedule: Q01DX009 (ip), vehicle: Klucel (hydroxypropylcellulose) (HPC)
  T/C: 103 % of control and 113 % of control

## CN(C)CC/C(Br)=C1/c2ccccc2Sc2ccc(Cl)cc21
[1]
  T/C: 111 % of control
[2]
  T/C: 98 % of control
[3]
  T/C: 93 % of control

## CCCC(=O)N1CCCCC1CC (stereo unspecified)
dose: 100.0 mg/kg/injection, schedule: Q01DX001 (ip), vehicle: saline
  T/C: 100 % of control
dose: 200.0 mg/kg/injection, schedule: Q01DX001 (ip), vehicle: saline
  T/C: 102 % of control

## CCCN1CCc2cc3c(cc2C1)OCO3
dose: 60.0 mg/kg/injection, schedule: Q01DX005 (ip), vehicle: saline
  T/C: 93 % of control
dose: 120.0 mg/kg/injection, schedule: Q01DX005 (ip), vehicle: saline
  T/C: 91 % of control
